From US7144862B2, “Orally administered peptides to ameliorate atherosclerosis” (The Regents of the University of California, priority 2000, dated 2006)
Converted amounts (≈) assume the structure as drawn. “And” between values parts separate entries of the source, which are not always exact repeats. Identical values can stand only once. Like-named read-outs stand apart in the source and are kept apart here. Non-standard residues stand in square brackets, D forms with d. Residues, ends and D or L forms follow the SMILES beside them.

How the values were obtained:
[1] = Solubility in PBS; format: physicochemical
Protocol: The peptides were purified on a preparative Vydac C4 column by reversed-phase (RP)-HPLC using water (with 0.1% trifluoroacetic acid) and acetonitrile (0.1% trifluoroacetic acid). The purity and the retention times of the peptides were determined on an analytical Vydac C18 column using a gradient of 25%-58% acetonitrile in water containing 0.1% TFA. The purity of these peptides was also confirmed by mass spectrometry. The mass was in agreement with the calculated molecular weight. Although both the 3F peptides and 4F have additional Phe residues compared to 2F, the retention times of these peptides on the C18 column are not very different (˜22 min). A sudden increase in the retention time is apparent with 5F, 6F and 7F (˜26 min). With increasing number of Phe residues, the solubility of these peptides in PBS decreases.

[2] = Surface pressure measurements: monolayer exclusion pressure; format: physicochemical; conditions: EPC monolayer; reproducibility ± 1 dyn/cm
Protocol: An insoluble monolayer of egg phosphatidylcholine (EPC) was spread at the air-water interface in a Teflon dish at room temperature to give an initial surface pressure (πi) in the range of 5–45 dyn/cm. A solution of peptides in PBS containing 1.5M Gdn. HCl was carefully injected in to the subphase to give a final concentration of 50 μg/dL. The Gdn. HCl was diluted in the subphase to a final concentration of ≦1 mM to allow the peptides to renature. The subphase was stirred continuously and the increase in EPC monolayer surface pressure (Δπ) was recorded until a steady state value was obtained. The value of the initial surface pressure (πi) at which the peptides no longer penetrate the EYPC monolayer i.e. the exclusion pressure (πe), was calculated by extrapolating the πi vs Δπ linear regression fit to Δπ=0 dyn/cm.

[3] = Circular dichroism, percent helicity; format: physicochemical; conditions: for Percent Helicity PBS: 11 μM peptide in PBS; for Percent Helicity DMPC: 11 μM peptide, Peptide: DMPC 1:20 (mol/mol)
Protocol: Briefly, spectra were obtained using a cell with a 0.1 cm path length and measurements were taken every nm from 260 nm to 190 nm at 25° C. All the CD spectra were signal averaged by adding four scans, base line corrected and smoothed. Peptide solutions in PBS, pH 7.4, were used at a concentration of 11 μM. Peptide-DMPC complexes (1:20 mol:mol) were used to determine the effect of lipid binding on the helicity of these peptides. These complexes were prepared by adding the appropriate volume of peptide solution to DMPC multilamellar vesicles. DMPC multilamellar vesicles were prepared as follows: A known amount of lipid was dissolved in ethanol and the solvent was removed by evaporating slowly under a thin stream of nitrogen. Residual solvent was removed by storing the lipid film under vacuum overnight. An appropriate volume of PBS, pH 7.4 was added to the thin lipid film to give the required final concentration of DMPC.

[4] = DSC, chain melting transition of DMPC; format: physicochemical; conditions: DMPC/peptide 100:1 (mol/mol); for TCM(° C.): 1.5 mM DMPC, chain melting transition temperature; for ΔHCM (kcals/mol): enthalpy of the transition; for ΔT1/2 (° C.): width at half maximum of the transition
Protocol: (§1) A known amount of phospholipid was dissolved in chloroform. For one set of samples, peptide was dissolved in methanol and added to a solution of DiPoPE in chloroforn/methanol (2:1, v:v). For both, pure lipid samples and the organic solutions of lipid and peptide, solvent was removed under a slow stream of nitrogen. Residual solvent was removed under vacuum. […] For DMPC, four consecutive scans with a 60 minute equilibration time between scans were taken. DSC thermograms were analyzed using the software provided by MicroCal Inc., Amherst, Mass., and Origin, version 5.0.
The effect of these 18A analogues on the chain melting transition of multilamellar vesicles of DMPC was studied by DSC using peptide-lipid mixtures at 100:1 lipid/peptide molar ratio.

[5] = DSC, bilayer to hexagonal phase transition of DiPoPE; format: physicochemical; conditions: heating scan rate 37°/h
Protocol: as §1
In the current study we prepared the peptide-lipid mixtures in two ways. One was by adding the peptide in organic solvent to the lipid in organic solvent followed by depositing the material as a film and subsequently hydrating with buffer. In the other method, the peptide and lipid were mixed after each was hydrated separately. If the mixture comes to equilibrium prior to the DSC analysis, it should not matter how the peptide and lipid are originally mixed. However, membrane systems can equilibrate slowly, in which case there may be more peptide in the lipid when it was incorporated at high concentrations into the lipid film.

[6] = Right angle light scattering, dissolution of EPC MLVs; format: physicochemical; conditions: 105 μM EPC, equimolar peptide; for clarification of EPC MLVs: 25° C., 30 min
Protocol: EPC MLVs were prepared by evaporating a solution of EPC (Avanti Polar, AL) under nitrogen and hydrating the lipid film with phosphate-buffered saline (pH 7.4). […] Turbidity clarification was monitored for 30 min.

[7] = tested on: human artery wall cell cocultures; assay: LDL-induced monocyte chemotactic activity with the homologous series of peptides (Example 3); format: cell-based; conditions: peptide at 100 μg/ml, LDL 250 μg protein/ml, 8 h
Protocol: Microtitre plates were treated with 0.1% gelatin at 37° C. overnight. HASMC were added at a confluent density of 1×10^5 cells/cm^2. […] HAEC were subsequently added at 2×10^5 cells/cm^2 and were allowed to grow, forming a complete monolayer of confluent HAEC in two days. In all experiments, HAEC and autologous HASMC (from the same donor) were used at passage levels of four to six. […] The cocultures were treated with native LDL(250 μg protein/ml) or presence of HDL (350 μg protein/ml) or peptides for 8 h.

[8] = tested on: human artery wall cell cocultures; assay: Lipoproteins from mice given peptide by gavage tested in human artery wall cell cocultures (monocyte chemotactic activity)
Protocol: Groups of LDL receptor-deficient mice (n=3) were administered the D-peptides or the saline vehicle by gavage. […] Blood was collected from retroorbital sinus under mild anesthesia 17 hrs later. LDL was isolated from plasma by FPLC. Cocultures of artery wall cells were incubated with medium alone (NO ADDITION), control LDL from normal subjects (LDL), LDL plus control HDL from normal subjects (+HDL). […] The cocultures were incubated for 4 hrs at 37° C. in the presence of 10% LPDS. The supernatants were then discarded, the cocultures were washed and incubated with culture medium without serum or LPDS for an additional 4 hrs. This conditioned medium was collected and analyzed for monocyte chemotactic activity. The values are mean±SD of quadruplicate cocultures.
Blood was collect after 6 hrs, plasma HDL and LDL were isolated by gel filtration (FPLC) and examined in the cocultures. […] Human LDL at 200 μg protein/ml was added to human artery wall cell cocultures together with human HDL (hHDL) at 350 μg protein/ml or mouse HDL (mHDL) at 100 μg cholesterol/ml taken from mice that received saline (Saline Rx) or L-4F (L-4F Rx) or D-4F (D-4F Rx) and monocyte chemotactic activity was determined as described herein. […] On the right, mouse LDL (mLDL) was isolated from mice receiving saline (Saline Rx) or L-4F (L4F Rx) or D-4F (D-4F Rx) and was added at 100 μg cholesterol/ml to the artery wall cell cocultures without HDL and monocyte chemotactic activity determined. Values are mean±SD) for four wells in two independent experiments.
Either saline or 2F synthesized from D amino acids or from L amino acids was instilled in the stomachs of mice by gavage (instillation in the stomach by tube). After gavage the mice were bled and their LDL isolated and added to the human artery wall cell cocultures.
The animals were bled 1.5, 3 or 6 hours later and their HDL, LDL, and VLDL/IDL isolated.
Human aortic endothelial and smooth muscle cells were isolated and cultured as previously described (Id.). Cellular oxidation of LDL in the presence and absence of HDL was determined as described (Id.). Human blood monocytes were isolated after obtaining informed consent and monocyte chemotaxis was determined as described previously^5.

[9] = tested on: Human aortic wall cocultures; assay: LDL plus peptide in vitro in human aortic wall cocultures, monocyte chemotactic activity (Example 2); format: cell-based; conditions: control LDL 250 μg/ml plus varying amounts of peptide
Protocol: Human aortic wall cocultures were incubated with medium alone (LDL, NO CELLS or CELLS, NO LDL, see FIG. 9), control LDL from normal subjects at 250 μg/ml (LDL) and LDL plus control HDL from normal subjects at 350 μg/ml (+HDL). Other cocultures were incubated With the control LDL together with varying amounts (micrograms shown on the abscissa) of either D-2F, or L-2F (third panel from the left, 2F) or D-37-pA or L-37pA (last panel on the right, 37pA). The data represent mean±SD of values obtained from quadruplicate cocultures.

[10] = mouse, in vivo
Protocol: The 5F peptide, MoAI, and human apo A-I were labeled with ^125I by the method of Bilheimer et al. (1972) Biochim. Biophys. Acta 260: 212–221. Mice were placed on a modified Thomas-Hartroft atherogenic diet (#TD88051; Teklad, Madison, Wis.) for four weeks at which time daily intraperitoneal injections of peptide or protein dissolved in 200 μl phosphate-buffered saline (PBS) were begun. Animals injected with MoAI or human apo A-I received 50 μg per animal; those injected with 5F received 20 μg. Animals were not fasted for the kinetic studies and blood samples were taken under xylazine:ketamine anesthesia from the retro-orbital sinus at 15, 30, and 45 minutes, and 1, 1.5, 2, 3, 4, 6, 8, 12, and 24 hours following injection. Each animal provided three blood samples at different time points (all retro-orbital and alternating eyes), and at least three samples were collected (from different animals) at each time point. Samples were collected into heparinized capillary tubes, then placed in microcentrifuge tubes; the plasma was separated by centrifugation. Duplicate 10 μl aliquots of each sample were taken for radioactivity determination, using gamma counting (Cobra; Packard Instruments, Downers Grove, Ill.) for 10 minutes per sample. Total plasma volume was calculated as 4.2% body weight. Each sample was expressed as percent of injected CPM in total plasma. Free ^125I was determined by trichloroacetic acid (TCA) precipitation (1 ml of 10% TCA per 10 μl plasma sample). Fitting to the kinetic model was done using all data points, rather than averages at each time point (PKAnalyst, MicroMath Scientific Software, Salt Lake City, Utah).
Treatment groups were compared by two-tailed t-tests or one way analysis of variance (where the data were normally distributed), or by one way analysis of variance on ranks (SigmaStat; SPSS Science, Chicago, Ill.). Kinetics of peptide or protein turnover were analyzed by fitting to a first order one-compartment kinetic model assuming non-equal input and output rates (PKAnalyst; MicroMath Scientific Software, Salt Lake City, Utah).

[11] = 5F, 100 μg per animal by oral gavage, LDL receptor null mice, blood after 6 hrs

| Compound | Solubility [1] [µg/mL] | Monolayer Exclusion Pressure(πc) [2] | Percent Helicity PBS [3] [%] | Percent Helicity DMPC [3] [%] | TCM(° C.) [4] [°C] | ΔHCM (kcals/mol) [4] [kcals/mol] | ΔT1/2 (° C.) [4] [°C] | shift in TH of DiPoPE with mol fraction of peptide [5] | clarification of EPC MLVs [6] | inhibition of LDL-induced monocyte chemotaxis [7] | solubility ([1]; in PBS, read-out: Solubility) [µg/mL] | other results |
| --- | --- | --- | --- | --- | --- | --- | --- | --- | --- | --- | --- | --- |
| CC(=O)N[C@@H](CC(=O)O)C(=O)N[C@@H](Cc1c[nH]c2ccccc12)C(=O)N[C@@H](Cc1ccccc1)C(=O)N[C@@H](CCCCN)C(=O)N[C@@H](C)C(=O)N[C@@H](Cc1ccccc1)C(=O)N[C@@H](Cc1ccc(O)cc1)C(=O)N[C@@H](CC(=O)O)C(=O)N[C@@H](CCCCN)C(=O)N[C@H](C(=O)N[C@@H](C)C(=O)N[C@@H](CCC(=O)O)C(=O)N[C@@H](CCCCN)C(=O)N[C@@H](Cc1ccccc1)C(=O)N[C@@H](CCCCN)C(=O)N[C@@H](CCC(=O)O)C(=O)N[C@@H](C)C(=O)N[C@@H](Cc1ccccc1)C(N)=O)C(C)C [Peptide 4F, Ac-D-W-F-K-A-F-Y-D-K-V-A-E-K-F-K-E-A-F-NH2] | 1300 (≈ 563 µM) | 40 dyn/cm | 45 | 44 | 23.2 | 5.3 | 0.4 | more rapid increase is observed at lower peptide concentrations | most effective in clarifying EPC MLVs with activity similar to that of Triton X-100 | significant and similar inhibition | – | solubility ([1]; Solubility (mg/ml)): 1250 to 1400 µg/mL (≈ 541 to 606 µM); time for 50% clearance of the turbidity of EPC MLVs [6]: shortest |
| CC(=O)N[C@H](CC(=O)O)C(=O)N[C@H](Cc1c[nH]c2ccccc12)C(=O)N[C@H](CC(C)C)C(=O)N[C@H](CCCCN)C(=O)N[C@H](C)C(=O)N[C@H](Cc1ccccc1)C(=O)N[C@H](Cc1ccc(O)cc1)C(=O)N[C@H](CC(=O)O)C(=O)N[C@H](CCCCN)C(=O)N[C@@H](C(=O)N[C@H](Cc1ccccc1)C(=O)N[C@H](CCC(=O)O)C(=O)N[C@H](CCCCN)C(=O)N[C@H](Cc1ccccc1)C(=O)N[C@H](CCCCN)C(=O)N[C@H](CCC(=O)O)C(=O)N[C@H](Cc1ccccc1)C(=O)N[C@H](Cc1ccccc1)C(N)=O)C(C)C [Peptide D-5F, Ac-D-W-L-K-A-F-Y-D-K-V-F-E-K-F-K-E-F-F-NH2] (Ac-[dD][dW][dL][dK][dA][dF][dY][dD][dK][dV][dF][dE][dK][dF][dK][dE][dF][dF]-NH2) | – | – | – | – | – | – | – | – | – | – | – | HDL protective capacity [8, 11]: markedly more protective; LDL resistance to oxidation [8, 11]: highly resistant to oxidation; monocyte chemotactic activity induced by mouse VLDL/IDL fraction ([8]; 50 micrograms by gavage, 3 hour time point): significantly less monocyte chemotactic activity; protection of control LDL by mouse HDL ([8]; 50 micrograms by gavage, HDL taken after 6 hours): slightly less; monocyte chemotactic activity induced by mouse LDL ([8]; 50 micrograms by gavage, after 3 h and 6 h): significantly less monocyte chemotactic activity |
| Ac-DWFKAFYDKFFEKFKEFF-NH2 [Peptide 7F, Ac-D-W-F-K-A-F-Y-D-K-F-F-E-K-F-K-E-F-F-NH2] | – | 45 dyn/cm | 58 | 68 | 23.2 | 4.5 | 0.5 | do not significantly affect TH | clarified the EPC MLVs to a similar extents | significantly less effective than peptides 4F, 5F and 6F | – | initial lag period in EPC MLV clearance [6]: ~300 s; time for 50% clearance of the turbidity of EPC MLVs [6]: longest time |
| Ac-DWFKAFYDKVAEKLKEAF-NH2 [3F^3] | – | – | – | – | – | – | – | – | – | – | 1250 to 1400 | – |
| Ac-DWLKAFYDKFFEKFKEFF-NH2 [Peptide 6F, Ac-D-W-L-K-A-F-Y-D-K-F-F-E-K-F-K-E-F-F-NH2] | 30 | 45 dyn/cm and 46 dyn/cm | 67 | 50 | 23.1 | 4.0 | 0.5 | do not significantly affect TH | clarified the EPC MLVs to a similar extents | significant and similar inhibition | – | solubility ([1]; Solubility (mg/ml)): 30 to 100 µg/mL |
| Ac-DWLKAFYDKVFEKFKEFF-NH2 [Peptide L-5F, Ac-D-W-L-K-A-F-Y-D-K-V-F-E-K-F-K-E-F-F-NH2] | – | – | – | – | – | – | – | – | – | – | – | HDL protective capacity [8, 11]: but not L-5F rendered the HDL markedly more protective |
| H-DWLKAFYDKVAEKLKEAF-OH [Peptide 18A, D-W-L-K-A-F-Y-D-K-V-A-E-K-L-K-E-A-F, reference compound] | – | 30 dyn/cm | – | – | – | – | – | – | – | – | > 2000 | – |
| H-DWLKAFYDKVAEKLKEAFPDWLKAFYDKVAEKLKEAF-OH [Peptide 37pA, DWLKAFYDKVAEKLKEAFPDWLKAFYDKVAEKLKEAF, reference compound] | – | 40 dyn/cm and 41 dyn/cm | – | – | – | – | – | – | – | – | > 2000 | – |
| H-DWLKAFYDKVAEKLKEAFPDWLKAFYDKVAEKLKEAF-OH [Peptide L-37pA, reference compound] | – | – | – | – | – | – | – | – | – | – | – | monocyte chemotactic activity induced by LDL treated with peptide in vitro [9]: significantly different from LDL |
| Human apo A-I: Human apo A-I is a 243 residue protein, major protein constituent of HDL | >2000 | 34 dyn/cm | – | – | – | – | – | – | does not clarify EPC MLVs | – | – | Max. % in plasma [10]: 23.7%; Time (h) to max. CPM ([10]; ip): 3.61 h; T½ ([10]; ip): 15.6 h |
